# Measurements as given in PubChem BioAssay AID504820 (Southern Research Specialized Biocontainment Screening …, 2011).
# Several values for one entry are separate records, joined by “and”; a condition that tells them apart may be missing. Identical values can stand only once. Activity calls are given as the source filed them. The rule behind the calls is not given here.
# Tested on: not listed separately
# Assay: RSV-induced CPE protection of HEp-2 cells – cell-based, synthesized compounds, set 8, dose response (AID 504820)
# Conditions: HEp-2 cells, RSV cytopathic effect inhibition; at 50 µM (top of the series)
row,Structure (SMILES),CPE inhibition
1,Cc1cccc(C)c1NC(=O)[C@@H]1CCCN1S(=O)(=O)c1cccc2cccnc12,44.1% (inactive)
2,COc1ccc(C)cc1NC(=O)[C@@H]1CCCN1S(=O)(=O)c1cccc2cccnc12,4.82% (inactive)
3,Cc1ccc(F)cc1NC(=O)[C@@H]1CCCN1S(=O)(=O)c1cccc2cccnc12,10.8% (inactive)
4,O=C([C@@H]1CCCN1S(=O)(=O)c1cccc2cccnc12)N1CCOCC1,1.71% (inactive)
5,Cc1ccc(NC(=O)C(C)NS(=O)(=O)c2cccc3cccnc23)c(C)c1 (configuration not stated),4.35% (inactive)
6,COCCCNC(=O)c1ccc(Cn2c(=O)c3ccc(Br)cc3n(Cc3ccc(C)cc3)c2=O)cc1,1.9% (inactive)
7,Cc1ccc(C(F)(F)F)cc1NC(=O)[C@@H]1CCCN1S(=O)(=O)c1cccc2cccnc12,15% (inactive)
8,Cc1ccc(NC(=O)[C@@H]2CCCN2S(=O)(=O)c2cccc3cccnc23)c(C)n1,4.2% (inactive)
9,Cc1ccc(NC(=O)CN(C)S(=O)(=O)c2cccc3cccnc23)c(C)c1,46% (inactive)
10,Cc1ccc(NC(=O)[C@@H]2CCCN2S(=O)(=O)c2cccc3nonc23)c(C)c1,6.16% (inactive)
11,Cc1ccc(Cn2c(=O)n(Cc3ccc(C(=O)Nc4nccs4)cc3)c(=O)c3ccccc32)cc1,2.96% (inactive)
12,O=C(Nc1ccccc1)[C@@H]1CCCN1S(=O)(=O)c1cccc2cccnc12,12.2% (inactive)
13,CC(C)(C)NC(=O)[C@@H]1CCCN1S(=O)(=O)c1cccc2cccnc12,1.38% (inactive)
14,Cc1ccc(NC(=O)C2CCCN2S(=O)(=O)c2ccc3ncccc3c2)c(C)c1 (configuration not stated),1.75% (inactive)
15,Cc1ncccc1NC(=O)[C@@H]1CCCN1S(=O)(=O)c1cccc2cccnc12,3.67% (inactive)
16,Cc1cc(C)cc(NC(=O)[C@@H]2CCCN2S(=O)(=O)c2cccc3cccnc23)c1,33.1% (inactive)
17,Cc1ccc(Cn2c(=O)n(Cc3ccc(C(=O)Nc4cc(C)nc5ccccc45)cc3)c(=O)c3ccccc32)cc1,2.83% (inactive)

row,Structure (SMILES),CPE inhibition
1,Cc1ccc(NC(=O)C2CCCN2S(C)(=O)=O)c(C)c1 (configuration not stated),2.52% (inactive)
2,COCCCNC(=O)c1ccc(Cn2c(=O)c3ccccc3n(Cc3cc(C)on3)c2=O)cc1,6.33% (inactive)
3,Cc1ccc(NC(=O)[C@@H]2CCCN2S(=O)(=O)c2cccc3cccnc23)cc1,25.5% (inactive)
4,Cc1cc(NC(=O)[C@@H]2CCCN2S(=O)(=O)c2cccc3cccnc23)n(C(C)(C)C)n1,33.2% (inactive)
5,Cc1ccc(NC(=O)C2CCCN2S(=O)(=O)c2cccc3cc(C)cnc23)c(C)c1 (configuration not stated),11.1% (inactive)
6,Cc1ccc(NC(=O)C2CCCN2S(=O)(=O)c2ccccc2)c(C)c1 (configuration not stated),1.19% (inactive)
7,Cc1ccc(NC(=O)C2CCCN2S(=O)(=O)c2cccc3cnccc23)c(C)c1 (configuration not stated),3.25% (inactive)
8,COCCCNC(=O)c1ccc(Cn2c(=O)c3ccccc3n(C)c2=O)cc1,19.2% (inactive)
9,Cc1ccc(C(C)C)cc1NC(=O)[C@@H]1CCCN1S(=O)(=O)c1cccc2cccnc12,7.9% (inactive)
10,Cc1ccc(C(C)(C)C)cc1NC(=O)[C@@H]1CCCN1S(=O)(=O)c1cccc2cccnc12,2.81% (inactive)
11,Cc1ccc(NC(=O)[C@H]2CCCN2S(=O)(=O)c2cccc3cccnc23)c(C)c1,26.6% (inactive)
12,O=C(Nc1ccc(Cl)cc1Cl)[C@@H]1CCCN1S(=O)(=O)c1cccc2cccnc12,2.1% (inactive)
13,CCCn1c(=O)n(Cc2ccc(C(=O)NCCCOC)cc2)c(=O)c2ccccc21,2.28% (inactive)
14,Cc1ccc(NC(=O)CNS(=O)(=O)c2cccc3cccnc23)c(C)c1,4.34% (inactive)
15,Cc1cccc(NC(=O)[C@@H]2CCCN2S(=O)(=O)c2cccc3cccnc23)c1,12.8% (inactive)
16,Cc1ccc(NC(=O)C2CCCN2S(=O)(=O)c2cccc3ccccc23)c(C)c1 (configuration not stated),1.6% (inactive)
17,Cc1ccc(Cl)c(NC(=O)[C@@H]2CCCN2S(=O)(=O)c2cccc3cccnc23)c1,8.49% (inactive)

# Tested on: HEp-2 cells, RSV cytopathic effect inhibition
# Assay: as above
# Conditions: not given
row,IC50,Structure (SMILES)
1,4.7 µM,COCCCNC(=O)c1ccc(Cn2c(=O)c3ccccc3n(Cc3ccc4nonc4c3)c2=O)cc1
2,1.4 µM,COCCCNC(=O)c1ccc(Cn2c(=O)c3ccccc3n(Cc3ccc(C(F)(F)F)cc3)c2=O)cc1
3,1.15 µM,COCCCNC(=O)c1ccc(Cn2c(=O)c3ccccc3n(Cc3ccc(Br)cc3)c2=O)cc1
4,3 µM,Cc1ccc(NC(=O)[C@@H]2CCCN2S(=O)(=O)c2cccc3cccnc23)c(C)c1
5,20.8 µM,CCc1ccccc1NC(=O)[C@@H]1CCCN1S(=O)(=O)c1cccc2cccnc12
6,1.25 µM,Cc1ccc(Cn2c(=O)n(Cc3ccc(C(=O)NC(C)(C)C)cc3)c(=O)c3ccccc32)cc1
7,2.3 µM,COCCCNC(=O)c1ccc(Cn2c(=O)c3ccccc3n(Cc3ccc(OC)cc3)c2=O)cc1
8,12.6 µM,Cc1ccc(NC(=O)C2CCCN2S(=O)(=O)c2cccc3cccnc23)c(C)c1 (configuration not stated)
9,29 µM,Cc1ccccc1NC(=O)[C@@H]1CCCN1S(=O)(=O)c1cccc2cccnc12
10,2.9 µM and 1.7 µM,Cc1ccc(C)c(NC(=O)[C@@H]2CCCN2S(=O)(=O)c2cccc3cccnc23)c1
11,2.65 µM,Cc1ccc(Cn2c(=O)n(Cc3ccc(C(=O)Nc4ccncc4)cc3)c(=O)c3ccccc32)cc1
12,4.8 µM,COc1ccc(C)c(NC(=O)[C@@H]2CCCN2S(=O)(=O)c2cccc3cccnc23)c1
13,8.9 µM,Cc1cccc(NC(=O)[C@@H]2CCCN2S(=O)(=O)c2cccc3cccnc23)c1C
14,17.2 µM,CC(C)c1ccccc1NC(=O)[C@@H]1CCCN1S(=O)(=O)c1cccc2cccnc12
15,0.55 µM,COCCCNC(=O)c1ccc(Cn2c(=O)c3ccccc3n(Cc3ccc([N+](=O)[O-])cc3)c2=O)cc1
16,3.35 µM,COc1ccccc1CNC(=O)C1CCN(S(=O)(=O)c2cccc3nonc23)CC1
17,2.5 µM,Cc1ccc(Cl)cc1NC(=O)[C@@H]1CCCN1S(=O)(=O)c1cccc2cccnc12
18,1.5 µM,COCCCNC(=O)c1ccc(Cn2c(=O)c3ccccc3n(Cc3ccc(C)c(C(F)(F)F)c3)c2=O)cc1
